Data taken from ChEMBL document CHEMBL1127094, “Competitive NMDA receptor antagonists; (R)-4-Oxo-5-phosphononorvaline structure-activity relationships” (Bioorg Med Chem Lett, 1993).

Biological target: Glutamate NMDA receptor
Test: Tested for the binding potency against NMDA site of the glutamate receptor complex using rat brain cortical membranes in a competitive binding assay with [3H]CPP as radioligand
Type: cell membranes, Membrane

Structure (SMILES) | IC50 [nM]
N[C@H](C/C(CP(=O)(O)O)=N/OCc1ccccc1)C(=O)O | 500
CC(C(=O)CP(=O)(O)O)C(N)C(=O)O (centres undefined) | 7000
N[C@H](CC(=O)CP(=O)(O)O)C(=O)O | 110
CC(N)(CC(=O)CP(=O)(O)O)C(=O)O (centres undefined) | 20000
N[C@H](C/C(CP(=O)(O)O)=N/O)C(=O)O | 200
CC(C(=O)C[C@@H](N)C(=O)O)P(=O)(O)O (some centres undefined) | 1800
COP(=O)(O)CC(=O)CC(N)C(=O)O (centres undefined) | 5000
COC(=O)[C@H](N)CC(=O)CP(=O)(O)O | 1700
CO/N=C(/C[C@@H](N)C(=O)O)CP(=O)(O)O | 600
